# From ChEMBL document CHEMBL4382229, “Benzofuran derivatives and their anti-tubercular, anti-bacterial activities” (Eur J Med Chem, 2019)
# Legend:
# [1] = tested on: Mycobacterium tuberculosis; test: Antimycobacterial activity against Mycobacterium tuberculosis H37Rv ATCC 27294 after 5 days by microplate alamar blue assay; format: functional; conditions: H37Rv ATCC 27294, 120 h
# Bacillus spizizenii [2] = test: Antibacterial activity against Bacillus subtilis ATCC 6633 after 24 hrs by broth dilution method; format: functional
# Staphylococcus aureus [3] = test: Antibacterial activity against Staphylococcus aureus ATCC 29213 after 24 hrs by broth dilution method; format: functional
# Escherichia coli [4] = test: Antibacterial activity against Escherichia coli ATCC 11229 after 24 hrs by broth dilution method; format: functional
# Proteus vulgaris [5] = test: Antibacterial activity against Proteus vulgaris […] after 24 hrs by broth dilution method; format: functional
# Staphylococcus aureus [6] = test: Antibacterial activity against Staphylococcus aureus ATCC 6538 after 24 hrs by broth dilution method; format: functional
# Staphylococcus aureus [7] = test: Antibacterial activity against Staphylococcus aureus assessed as diameter of inhibition zone at 250 ug/ml after 24 hrs by disc diffusion method; format: functional; conditions: read-out: DIZ
# Escherichia coli [8] = test: Antibacterial activity against Escherichia coli assessed as diameter of inhibition zone at 250 ug/ml after 24 hrs by disc diffusion method; format: functional; conditions: read-out: DIZ
# Escherichia coli [9] = test: Antibacterial activity against Escherichia coli by broth dilution method; format: functional
# Pseudomonas aeruginosa [10] = test: Antibacterial activity against Pseudomonas aeruginosa by broth dilution method; format: functional
# Staphylococcus aureus [11] = test: Antibacterial activity against Staphylococcus aureus ATCC 25923 after 24 hrs; format: functional; conditions: ATCC 25923, 24 h
# Bacillus spizizenii [12] = test: Antibacterial activity against Bacillus subtilis ATCC 6633 after 24 hrs; format: functional; conditions: ATCC 6633, 24 h
# Escherichia coli [13] = test: Antibacterial activity against Escherichia coli ATCC 25922 after 24 hrs; format: functional; conditions: ATCC 25922, 24 h
# Proteus vulgaris [14] = test: Antibacterial activity against Proteus vulgaris after 24 hrs; format: functional
# Staphylococcus aureus [15] = test: Antibacterial activity against Staphylococcus aureus MTCC 96 assessed as zone of inhibition at 25 ug/ml by agar well diffusion method; format: functional; conditions: read-out: IZ
# Streptococcus pyogenes [16] = test: Antibacterial activity against Streptococcus pyogenes MTCC 442 assessed as zone of inhibition at 25 ug/ml by agar well diffusion method; format: functional; conditions: read-out: IZ
# Escherichia coli [17] = test: Antibacterial activity against Escherichia coli MTCC 443 assessed as zone of inhibition at 25 ug/ml by agar well diffusion method; format: functional; conditions: read-out: IZ
# Pseudomonas aeruginosa [18] = test: Antibacterial activity against Pseudomonas aeruginosa MTCC 424 assessed as zone of inhibition at 25 ug/ml by agar well diffusion method; format: functional; conditions: read-out: IZ
# Staphylococcus aureus [19] = test: Antibacterial activity against Staphylococcus aureus MTCC 96 assessed as zone of inhibition at 100 ug/ml by disc diffusion method; format: functional; conditions: read-out: IZ
# Streptococcus pyogenes [20] = test: Antibacterial activity against Streptococcus pyogenes MTCC 442 assessed as zone of inhibition at 100 ug/ml by disc diffusion method; format: functional; conditions: read-out: IZ
# Escherichia coli [21] = test: Antibacterial activity against Escherichia coli MTCC 443 assessed as zone of inhibition at 100 ug/ml by disc diffusion method; format: functional; conditions: read-out: IZ
# Pseudomonas aeruginosa [22] = test: Antibacterial activity against Pseudomonas aeruginosa MTCC 424 assessed as zone of inhibition at 100 ug/ml by disc diffusion method; format: functional; conditions: read-out: IZ
# [23] = biological target: DNA gyrase subunit A/DNA gyrase subunit B (Mycobacterium tuberculosis (strain ATCC 25618 / H37Rv), UniProt P9WG45+P9WG47); test: Inhibition of Mycobacterium tuberculosis H37Rv DNA gyrase A/B expressed in Escherichia coli assessed as reduction in supercoiling of relaxed pBR322 DNA substrate measured after 60 mins by ethidium bromide staining based agarose gel electrophoresis method
# Staphylococcus aureus [24] = test: Antibacterial activity against Staphylococcus aureus assessed as zone of inhibition at 50 ug/ml after 3 days by filter paper disc method; format: functional; conditions: 72 h, read-out: IZ
# Bacillus subtilis = test: Antibacterial activity against Bacillus subtilis assessed as zone of inhibition at 50 ug/ml after 3 days by filter paper disc method; format: functional; conditions: 72 h, read-out: IZ
# Escherichia coli [25] = test: Antibacterial activity against Escherichia coli assessed as zone of inhibition at 50 ug/ml after 3 days by filter paper disc method; format: functional; conditions: 72 h, read-out: IZ
# Pseudomonas aeruginosa [26] = test: Antibacterial activity against Pseudomonas aeruginosa assessed as zone of inhibition at 50 ug/ml after 3 days by filter paper disc method; format: functional; conditions: 72 h, read-out: IZ
# Staphylococcus aureus [27] = test: Antibacterial activity against Staphylococcus aureus assessed as zone of inhibition at 1 mg/ml after 32 hrs by agar-well diffusion method; format: functional; conditions: read-out: IZ
# Klebsiella pneumoniae = test: Antibacterial activity against Klebsiella pneumoniae assessed as zone of inhibition at 1 mg/ml after 32 hrs by agar-well diffusion method; format: functional; conditions: read-out: IZ
# Pseudomonas aeruginosa [28] = test: Antibacterial activity against Pseudomonas aeruginosa assessed as zone of inhibition at 1 mg/ml after 32 hrs by agar-well diffusion method; format: functional; conditions: read-out: IZ
# Escherichia coli [29] = test: Antibacterial activity against Escherichia coli assessed as zone of inhibition at 1 mg/ml after 32 hrs by agar-well diffusion method; format: functional; conditions: read-out: IZ
compound,measurement,setting,value
NC(=O)c1cnccn1 [PYRAZINAMIDE],MIC,[1],3.12 µg/mL
GENTAMICIN,MIC,Bacillus spizizenii [2],1.62 to 3.12 µg/mL
same,MIC,Staphylococcus aureus [3],1.6 to 3.1 µg/mL
same,MIC,Escherichia coli [4],1.62 to 3.12 µg/mL
same,MIC,Proteus vulgaris [5],1.62 to 3.12 µg/mL
same,MIC,Staphylococcus aureus [6],1.62 to 3.12 µg/mL
Cc1ccc(Oc2nc3ccc(C)cc3cc2C2SCC(=O)N2NC(=O)c2cc(-c3cc4ccccc4o3)n(-c3ccccc3)n2)cc1 (stereo not given),zone of inhibition at 250 µg/mL,Staphylococcus aureus [7],12 to 14 mm
same,zone of inhibition at 250 µg/mL,Escherichia coli [8],12 to 14 mm
Cc1ccc2occ(-c3cc4cc(Br)ccc4oc3=O)c2c1,MIC,Escherichia coli [9],6.25 to 100 µg/mL
same,MIC,Pseudomonas aeruginosa [10],6.25 to 100 µg/mL
O=C(c1ccc(Br)cc1)c1oc2ccc(Br)cc2c1/C=C/c1c[nH]c2ccccc12,MIC,"Bacillus spizizenii [2]; ATCC 6633, 24 h",3.12 to 6.25 µg/mL
same,MIC,"Escherichia coli [4]; ATCC 11229, 24 h",3.12 to 6.25 µg/mL
same,MIC,Proteus vulgaris [5],3.12 to 6.25 µg/mL
same,MIC,"Staphylococcus aureus [6]; ATCC 6538, 24 h",3.12 to 6.25 µg/mL
Cc1ccc(Oc2nc3ccc(C)cc3cc2/C=N\NC(=O)c2cc(-c3cc4ccccc4o3)n(-c3ccccc3)n2)cc1,zone of inhibition at 250 µg/mL,Staphylococcus aureus [7],12 to 14 mm
same,zone of inhibition at 250 µg/mL,Escherichia coli [8],12 to 14 mm
O=C1Nc2ccccc2/C1=N/NC(=O)c1cc2ccccc2o1,MIC,Staphylococcus aureus [11],250 to 500 µg/mL
same,MIC,Bacillus spizizenii [12],250 to 500 µg/mL
same,MIC,Escherichia coli [13],250 to 500 µg/mL
same,MIC,Proteus vulgaris [14],250 to 500 µg/mL
CCn1cc(C(=O)O)c(=O)c2cc(F)c(N3CCNCC3)cc21 [NORFLOXACIN],MIC,Proteus vulgaris [14],62.5 µg/mL
same,zone of inhibition at 25 µg/mL,Staphylococcus aureus [15],19 to 25 mm
same,zone of inhibition at 25 µg/mL,Streptococcus pyogenes [16],19 to 25 mm
same,zone of inhibition at 25 µg/mL,Escherichia coli [17],19 to 25 mm
same,zone of inhibition at 25 µg/mL,Pseudomonas aeruginosa [18],19 to 25 mm
CC(=O)Nc1cc(C)cc2cc(COC(=O)NCc3ccccc3)oc12,zone of inhibition at 100 µg/mL,Staphylococcus aureus [19],11 to 28 mm
same,zone of inhibition at 100 µg/mL,Streptococcus pyogenes [20],11 to 28 mm
same,zone of inhibition at 100 µg/mL,Escherichia coli [21],11 to 28 mm
same,zone of inhibition at 100 µg/mL,Pseudomonas aeruginosa [22],11 to 28 mm
O=C1Nc2ccc(Cl)cc2/C1=N/NC(=O)c1cc2ccccc2o1,IC50,[23],50 to 200 µM
Cc1cc(NS(C)(=O)=O)c2oc(COC(=O)NCc3ccccc3)cc2c1,zone of inhibition at 100 µg/mL,Staphylococcus aureus [19],19 to 28 mm
same,zone of inhibition at 100 µg/mL,Streptococcus pyogenes [20],19 to 28 mm
same,zone of inhibition at 100 µg/mL,Escherichia coli [21],19 to 28 mm
same,zone of inhibition at 100 µg/mL,Pseudomonas aeruginosa [22],19 to 28 mm
O=c1oc2ccc(Br)cc2cc1-c1coc2c1ccc1ccccc12,MIC,Escherichia coli [9],6.25 to 100 µg/mL
same,MIC,Pseudomonas aeruginosa [10],6.25 to 100 µg/mL
Cc1cc(NS(=O)(=O)c2cccs2)c2oc(COC(=O)NCc3ccccc3)cc2c1,zone of inhibition at 100 µg/mL,Staphylococcus aureus [19],11 to 28 mm
same,zone of inhibition at 100 µg/mL,Streptococcus pyogenes [20],11 to 28 mm
same,zone of inhibition at 100 µg/mL,Escherichia coli [21],11 to 28 mm
same,zone of inhibition at 100 µg/mL,Pseudomonas aeruginosa [22],11 to 28 mm
COc1cc(OC)c(-c2cc3cc(C(=O)NN)cc(OC)c3o2)c(OC)c1,zone of inhibition at 25 µg/mL,Staphylococcus aureus [15],21 to 27 mm
same,zone of inhibition at 25 µg/mL,Streptococcus pyogenes [16],21 to 27 mm
same,zone of inhibition at 25 µg/mL,Escherichia coli [17],21 to 27 mm
same,zone of inhibition at 25 µg/mL,Pseudomonas aeruginosa [18],21 to 27 mm
Cc1cc(NC(=O)c2ccccc2)c2oc(COC(=O)NCc3ccccc3)cc2c1,zone of inhibition at 100 µg/mL,Staphylococcus aureus [19],11 to 28 mm
same,zone of inhibition at 100 µg/mL,Streptococcus pyogenes [20],11 to 28 mm
same,zone of inhibition at 100 µg/mL,Escherichia coli [21],11 to 28 mm
same,zone of inhibition at 100 µg/mL,Pseudomonas aeruginosa [22],11 to 28 mm
COc1ccc(-c2nn(-c3ccccc3)cc2/C=C/c2oc3c4c(ccc3c2C(=O)c2ccc(Br)cc2)OCC=C4)cc1OC,MIC,"Bacillus spizizenii [2]; ATCC 6633, 24 h",1.6 to 3.1 µg/mL
same,MIC,"Staphylococcus aureus [3]; ATCC 29213, 24 h",1.6 to 3.1 µg/mL
same,MIC,"Escherichia coli [4]; ATCC 11229, 24 h",1.6 to 3.1 µg/mL
same,MIC,Proteus vulgaris [5],1.6 to 3.1 µg/mL
CC1(C)S[C@@H]2[C@H](NC(=O)[C@H](N)c3ccccc3)C(=O)N2[C@H]1C(=O)O [AMPICILLIN],zone of inhibition at 50 µg/mL,Staphylococcus aureus [24],10 to 30 mm
same,zone of inhibition at 50 µg/mL,Bacillus subtilis,10 to 30 mm
same,zone of inhibition at 50 µg/mL,Escherichia coli [25],10 to 30 mm
same,zone of inhibition at 50 µg/mL,Pseudomonas aeruginosa [26],10 to 30 mm
same,zone of inhibition at 1000 µg/mL,Staphylococcus aureus [27],20 to 28 mm
same,zone of inhibition at 1000 µg/mL,Klebsiella pneumoniae,20 to 28 mm
same,zone of inhibition at 1000 µg/mL,Pseudomonas aeruginosa [28],20 to 28 mm
same,zone of inhibition at 1000 µg/mL,Escherichia coli [29],20 to 28 mm
same,MIC,Staphylococcus aureus [11],0.48 µg/mL
same,MIC,Bacillus spizizenii [12],3.9 µg/mL
same,MIC,Escherichia coli [13],3.9 µg/mL
same,MIC,Proteus vulgaris [14],3.9 µg/mL
Cc1cc(NS(=O)(=O)c2ccccc2)c2oc(COC(=O)NCc3ccccc3)cc2c1,zone of inhibition at 100 µg/mL,Staphylococcus aureus [19],11 to 28 mm
same,zone of inhibition at 100 µg/mL,Streptococcus pyogenes [20],11 to 28 mm
same,zone of inhibition at 100 µg/mL,Escherichia coli [21],11 to 28 mm
same,zone of inhibition at 100 µg/mL,Pseudomonas aeruginosa [22],11 to 28 mm
O=C(N/N=C1\C(=O)N(c2ccccc2)c2ccccc21)c1cc2ccccc2o1,IC50,[23],50 to 200 µM
Fc1ccc(-c2csc3nc(-c4cc5cc(Br)ccc5o4)cn23)cc1,zone of inhibition at 1000 µg/mL,Staphylococcus aureus [27],6 to 23 mm
same,zone of inhibition at 1000 µg/mL,Klebsiella pneumoniae,6 to 23 mm
same,zone of inhibition at 1000 µg/mL,Pseudomonas aeruginosa [28],6 to 23 mm
same,zone of inhibition at 1000 µg/mL,Escherichia coli [29],6 to 23 mm
O=C(O)c1cn(C2CC2)c2cc(N3CCNCC3)c(F)cc2c1=O [CIPROFLOXACIN],MIC,[1],3.12 µg/mL
same,zone of inhibition at 50 µg/mL,Escherichia coli [25],25 to 28 mm
same,zone of inhibition at 50 µg/mL,Pseudomonas aeruginosa [26],25 to 28 mm
same,MIC,Pseudomonas aeruginosa [10],< 4 µg/mL
same,zone of inhibition at 100 µg/mL,Staphylococcus aureus [19],21 to 28 mm
same,zone of inhibition at 100 µg/mL,Streptococcus pyogenes [20],21 to 28 mm
same,zone of inhibition at 100 µg/mL,Escherichia coli [21],21 to 28 mm
same,zone of inhibition at 100 µg/mL,Pseudomonas aeruginosa [22],21 to 28 mm
O=C1/C(=C\c2cn(-c3ccccc3)nc2-c2cccs2)Oc2cc(Cl)ccc21,zone of inhibition at 50 µg/mL,Staphylococcus aureus [24],13 to 33 mm
same,zone of inhibition at 50 µg/mL,Bacillus subtilis,13 to 33 mm
same,zone of inhibition at 50 µg/mL,Escherichia coli [25],13 to 33 mm
same,zone of inhibition at 50 µg/mL,Pseudomonas aeruginosa [26],13 to 33 mm
